# Columns and labels:
# Type in all cases: functional
# Lysine--tRNA ligase = Lysine--tRNA ligase (Plasmodium falciparum (isolate 3D7), UniProt Q8IDJ8); assay: MMV: KRS recombinant Plasmodium falciparum Lysyl-tRNA-synthetase, assay with yeast tRNA, ATP, and lysine and 3 uM MMV malaria box compound, assay read out with kinase glo as % inhibition.
# [1] = target: T1, Cdk-related protein kinase 6 (Plasmodium falciparum, UniProt O77239); assay: Final concentrations were 1.5 uM ATP, 5 mM MnCl2, and 15 ug/ml PK6 in a buffer of 100 mM Tris-HCl (pH 7.5). 50 ug/mL MBP was provided as the substrate; 10 uM staurosporine was used as a control inhibitor. Incubation time was 3 hours and 40 minutes.The catalytic activity of each kinase was considered proportional to ATP consumed, as determined from measurements of residual [ATP] with the luciferase-based reagent Kinase-Glo (Promega) following incubation. Luminescence (proportional to residual [ATP]) was measured on the plate readers FLx800 (BioTek Instruments, Winooski, VT, USA) and MicroBeta2.
# T1 sequence (O77239 whole entry): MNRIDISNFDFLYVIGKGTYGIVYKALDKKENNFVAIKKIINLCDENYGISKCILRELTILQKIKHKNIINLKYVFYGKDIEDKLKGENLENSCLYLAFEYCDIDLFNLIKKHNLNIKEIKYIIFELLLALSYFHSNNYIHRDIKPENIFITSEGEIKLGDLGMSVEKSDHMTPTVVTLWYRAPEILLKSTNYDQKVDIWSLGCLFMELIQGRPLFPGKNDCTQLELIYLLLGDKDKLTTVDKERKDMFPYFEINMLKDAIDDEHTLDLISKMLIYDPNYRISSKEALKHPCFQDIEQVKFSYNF
# Proline--tRNA ligase = target: T2, Proline--tRNA ligase (Plasmodium falciparum (isolate 3D7), UniProt Q8I5R7); assay: MMV: ProRS recombinant Plasmodium falciparum Prolyl-tRNA-synthetase, assay with yeast tRNA, ATP, and proline and 3 uM MMV malaria box compound, assay read out with kinase glo as % inhibition.
# T2 sequence (Q8I5R7 whole entry): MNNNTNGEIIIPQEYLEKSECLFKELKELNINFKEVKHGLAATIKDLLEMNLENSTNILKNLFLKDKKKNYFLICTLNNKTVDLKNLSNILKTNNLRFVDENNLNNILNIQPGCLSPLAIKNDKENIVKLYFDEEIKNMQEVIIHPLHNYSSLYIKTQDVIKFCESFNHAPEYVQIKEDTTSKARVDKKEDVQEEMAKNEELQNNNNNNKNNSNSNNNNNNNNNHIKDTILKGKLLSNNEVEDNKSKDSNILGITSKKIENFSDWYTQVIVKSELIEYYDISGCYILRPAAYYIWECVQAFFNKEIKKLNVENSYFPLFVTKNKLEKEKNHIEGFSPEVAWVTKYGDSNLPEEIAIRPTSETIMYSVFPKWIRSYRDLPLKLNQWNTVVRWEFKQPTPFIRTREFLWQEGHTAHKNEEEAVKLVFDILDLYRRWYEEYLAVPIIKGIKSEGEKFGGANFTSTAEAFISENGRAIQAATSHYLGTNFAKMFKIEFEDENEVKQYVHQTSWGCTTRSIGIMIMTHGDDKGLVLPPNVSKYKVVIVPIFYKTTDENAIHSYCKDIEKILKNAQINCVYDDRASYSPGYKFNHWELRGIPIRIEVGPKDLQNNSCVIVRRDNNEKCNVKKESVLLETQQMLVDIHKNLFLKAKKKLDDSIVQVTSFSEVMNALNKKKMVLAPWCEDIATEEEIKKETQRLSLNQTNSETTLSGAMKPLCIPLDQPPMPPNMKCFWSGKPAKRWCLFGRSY
# [2] = target: T3, Mitogen-activated protein kinase (Plasmodium falciparum, UniProt Q25917); assay: Final concentrations were 1 uM ATP, 0.5 mM DTT, 1 mM MgCl2, 0.5 mg/mL BSA, and 10 ug/ml MAP2 in a buffer of 50 mM HEPES (pH 7.0). 0.5 mg/mL histone III-S served as the substrate (13); 100 uM AMP-PNP, an ATP analog, was used as a control inhibitor. Incubation time was 4 hours.
# T3 sequence (Q25917 whole entry): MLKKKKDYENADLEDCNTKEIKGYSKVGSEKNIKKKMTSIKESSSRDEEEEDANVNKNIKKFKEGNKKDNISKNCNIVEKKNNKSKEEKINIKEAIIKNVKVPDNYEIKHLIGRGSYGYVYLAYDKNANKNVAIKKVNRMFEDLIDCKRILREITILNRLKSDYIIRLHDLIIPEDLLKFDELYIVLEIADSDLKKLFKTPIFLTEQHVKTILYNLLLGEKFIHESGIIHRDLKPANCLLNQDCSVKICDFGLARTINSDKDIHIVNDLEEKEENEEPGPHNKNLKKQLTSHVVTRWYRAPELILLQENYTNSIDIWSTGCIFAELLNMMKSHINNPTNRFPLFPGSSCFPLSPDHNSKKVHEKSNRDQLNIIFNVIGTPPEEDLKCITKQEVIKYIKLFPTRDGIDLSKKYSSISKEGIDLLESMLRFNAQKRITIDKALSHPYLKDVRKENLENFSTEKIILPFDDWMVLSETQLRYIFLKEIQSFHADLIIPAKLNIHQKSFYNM
# [3] = target: T4, Calcium-dependent protein kinase 4 (Plasmodium falciparum (isolate 3D7), UniProt Q8IBS5); assay: MMV: CDPK4 Protein kinase inhibition assay using recombinant PfCDPK4, syntide2 peptide substrate, ATP and KinaseGlo to measure % inhibition at 1 uM MMV box compound.
# T4 sequence (Q8IBS5 whole entry): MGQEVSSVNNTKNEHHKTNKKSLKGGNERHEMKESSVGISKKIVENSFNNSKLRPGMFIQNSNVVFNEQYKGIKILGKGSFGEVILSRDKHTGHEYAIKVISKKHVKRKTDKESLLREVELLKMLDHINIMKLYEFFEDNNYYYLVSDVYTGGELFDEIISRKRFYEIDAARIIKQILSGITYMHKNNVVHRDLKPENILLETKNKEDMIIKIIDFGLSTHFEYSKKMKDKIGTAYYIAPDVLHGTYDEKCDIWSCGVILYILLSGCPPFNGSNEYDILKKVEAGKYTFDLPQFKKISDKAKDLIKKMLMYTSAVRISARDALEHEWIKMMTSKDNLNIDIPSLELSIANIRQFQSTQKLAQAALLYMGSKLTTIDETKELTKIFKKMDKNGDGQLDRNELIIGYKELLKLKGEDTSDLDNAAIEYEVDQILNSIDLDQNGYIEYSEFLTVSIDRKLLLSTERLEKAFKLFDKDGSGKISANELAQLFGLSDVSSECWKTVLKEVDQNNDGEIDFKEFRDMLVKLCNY
# [4] = target: Calcium-dependent protein kinase 1 (Plasmodium falciparum, UniProt P62344); assay: MMV: CDPK1 Protein kinase inhibition assay using recombinant PfCDPK1, syntide 2 peptide substrate, ATP and KinaseGlo to measure % inhibition at 1 uM MMV box compound.
# Calcium-dependent protein kinase 1, sequence (P62344 whole entry): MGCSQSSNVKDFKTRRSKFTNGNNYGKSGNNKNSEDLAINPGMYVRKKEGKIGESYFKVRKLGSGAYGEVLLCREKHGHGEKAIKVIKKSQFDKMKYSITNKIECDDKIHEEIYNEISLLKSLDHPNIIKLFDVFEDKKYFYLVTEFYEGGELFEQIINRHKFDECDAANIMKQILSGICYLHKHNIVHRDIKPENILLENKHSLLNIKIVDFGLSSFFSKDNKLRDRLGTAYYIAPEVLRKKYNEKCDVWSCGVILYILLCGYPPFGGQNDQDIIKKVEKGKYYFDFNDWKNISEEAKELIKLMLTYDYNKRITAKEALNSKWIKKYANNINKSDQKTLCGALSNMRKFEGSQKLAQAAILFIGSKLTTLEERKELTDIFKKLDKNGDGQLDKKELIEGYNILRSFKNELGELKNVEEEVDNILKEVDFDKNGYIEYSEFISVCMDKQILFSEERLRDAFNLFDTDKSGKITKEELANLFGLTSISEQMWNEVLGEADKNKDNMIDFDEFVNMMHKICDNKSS
# [5] = target: T5, Putative uncharacterized protein pk7 (Plasmodium falciparum, UniProt O96214); assay: Final concentrations were 1 uM ATP, 2 mM DTT, 20 mM MgCl2, 2 mM MnCl2, 0.01% BSA, and 6 ug/ml PK7, in a buffer of 20 mM Tris-HCl (pH 7.5). The enzyme itself was the only substrate present (since autophosphorylation occurs); 100 uM 1NA-PP1 was used as a control inhibitor. Incubation time was 3 hours.
# T5 sequence (O96214 whole entry): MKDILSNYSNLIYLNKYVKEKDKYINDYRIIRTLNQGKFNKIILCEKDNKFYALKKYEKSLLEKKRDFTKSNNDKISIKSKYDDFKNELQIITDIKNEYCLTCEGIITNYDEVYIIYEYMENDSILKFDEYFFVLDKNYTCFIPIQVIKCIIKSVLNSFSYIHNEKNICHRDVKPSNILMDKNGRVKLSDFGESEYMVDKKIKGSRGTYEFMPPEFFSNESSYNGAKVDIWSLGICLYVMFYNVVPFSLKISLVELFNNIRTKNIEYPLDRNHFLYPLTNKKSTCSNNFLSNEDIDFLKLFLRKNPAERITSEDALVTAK
# Lysine--tRNA ligase, sequence (Q8IDJ8 whole entry): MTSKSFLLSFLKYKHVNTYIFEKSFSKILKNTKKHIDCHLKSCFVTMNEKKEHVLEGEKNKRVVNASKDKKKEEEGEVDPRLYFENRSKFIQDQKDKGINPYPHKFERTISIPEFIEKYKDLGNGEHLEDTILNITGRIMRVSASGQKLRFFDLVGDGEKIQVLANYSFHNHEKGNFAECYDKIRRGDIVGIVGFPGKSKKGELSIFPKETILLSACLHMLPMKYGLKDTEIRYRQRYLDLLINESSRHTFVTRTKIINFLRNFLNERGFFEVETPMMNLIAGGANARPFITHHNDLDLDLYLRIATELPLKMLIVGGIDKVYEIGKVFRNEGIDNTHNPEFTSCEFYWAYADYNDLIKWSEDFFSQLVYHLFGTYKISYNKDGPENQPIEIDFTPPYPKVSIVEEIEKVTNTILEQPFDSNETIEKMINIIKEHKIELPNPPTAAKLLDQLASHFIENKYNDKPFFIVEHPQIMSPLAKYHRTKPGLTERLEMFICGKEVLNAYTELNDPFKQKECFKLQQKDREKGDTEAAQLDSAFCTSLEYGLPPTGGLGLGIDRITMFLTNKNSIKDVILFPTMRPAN
compound,measurement,setting,value
COc1ccc(-c2nonc2NC(=O)c2cccc(Cl)c2)cc1OC,IC50,Lysine--tRNA ligase,> 2500 nM
same,IC50,[1],> 1000 nM
same,IC50,Proline--tRNA ligase,> 2500 nM
same,IC50,[2],> 1000 nM
same,IC50,[3],> 1000 nM
same,IC50,[4],> 1000 nM
same,IC50,[5],> 1000 nM
Cc1cc(NC(=O)c2ccc(-c3ccccc3)cc2)no1,IC50,Lysine--tRNA ligase,> 2500 nM
same,IC50,[1],> 1000 nM
same,IC50,Proline--tRNA ligase,> 2500 nM
same,IC50,[2],> 1000 nM
same,IC50,[3],> 1000 nM
same,IC50,[4],> 1000 nM
same,IC50,[5],> 1000 nM
O=C1CC(O)(C(F)(F)C(F)(F)F)Oc2ccccc21 (configuration not stated),IC50,Lysine--tRNA ligase,> 2500 nM
same,IC50,[1],> 1000 nM
same,IC50,Proline--tRNA ligase,> 2500 nM
same,IC50,[2],> 1000 nM
same,IC50,[3],> 1000 nM
same,IC50,[4],> 1000 nM
same,IC50,[5],> 1000 nM
COc1cc(SC)ccc1C(=O)N1CCCC(C)C1 (configuration not stated),IC50,Lysine--tRNA ligase,> 2500 nM
same,IC50,[1],> 1000 nM
same,IC50,Proline--tRNA ligase,> 2500 nM
same,IC50,[2],> 1000 nM
same,IC50,[3],> 1000 nM
same,IC50,[4],> 1000 nM
same,IC50,[5],> 1000 nM
Cc1ccc(NC(=O)Nc2cccc(Cl)c2)cc1F,IC50,Lysine--tRNA ligase,> 2500 nM
same,IC50,[1],> 1000 nM
same,IC50,Proline--tRNA ligase,> 2500 nM
same,IC50,[2],> 1000 nM
same,IC50,[3],> 1000 nM
same,IC50,[4],> 1000 nM
same,IC50,[5],> 1000 nM
O=c1nc(C=Cc2ccc(Cl)cc2)oc2ccccc12,IC50,Lysine--tRNA ligase,> 2500 nM
same,IC50,[1],> 1000 nM
same,IC50,Proline--tRNA ligase,> 2500 nM
same,IC50,[2],> 1000 nM
same,IC50,[3],> 1000 nM
same,IC50,[4],> 1000 nM
same,IC50,[5],> 1000 nM
O=C(NCc1ccco1)C1CCN(S(=O)(=O)c2ccc(Br)cc2)CC1,IC50,Lysine--tRNA ligase,> 2500 nM
same,IC50,[1],> 1000 nM
same,IC50,Proline--tRNA ligase,> 2500 nM
same,IC50,[2],> 1000 nM
same,IC50,[3],> 1000 nM
same,IC50,[4],> 1000 nM
same,IC50,[5],> 1000 nM
COc1ccc(Nc2nc(NCc3ccccc3)c3ccccc3n2)cc1,IC50,Lysine--tRNA ligase,> 2500 nM
same,IC50,[1],> 1000 nM
same,IC50,Proline--tRNA ligase,> 2500 nM
same,IC50,[2],> 1000 nM
same,IC50,[3],> 1000 nM
same,IC50,[4],> 1000 nM
same,IC50,[5],> 1000 nM
COc1cc2c(cc1OC)C1=NNC(=O)C1=NC(C)(C)C2,IC50,Lysine--tRNA ligase,> 2500 nM
same,IC50,[1],> 1000 nM
same,IC50,Proline--tRNA ligase,> 2500 nM
same,IC50,[2],> 1000 nM
same,IC50,[3],> 1000 nM
same,IC50,[4],> 1000 nM
same,IC50,[5],> 1000 nM
CCCCc1c(C)nc2c(OC)cccc2c1O,IC50,Lysine--tRNA ligase,> 2500 nM
same,IC50,[1],> 1000 nM
same,IC50,Proline--tRNA ligase,> 2500 nM
same,IC50,[2],> 1000 nM
same,IC50,[3],> 1000 nM
same,IC50,[4],> 1000 nM
same,IC50,[5],> 1000 nM
CCOc1ccc(CCNC(=O)c2cccs2)cc1OCC,IC50,Lysine--tRNA ligase,> 2500 nM
same,IC50,[1],> 1000 nM
same,IC50,Proline--tRNA ligase,> 2500 nM
same,IC50,[2],> 1000 nM
same,IC50,[3],> 1000 nM
same,IC50,[4],> 1000 nM
same,IC50,[5],> 1000 nM

# Source: ChEMBL document CHEMBL3301562, “MMV Box screening against Plasmodium falciparum protein kinases and aminoacyl tRNA synthetases”
